Assay results published in the METLIN SMRT retention time set (Domingo-Almenara et al. 2019).

Experiment: gradient 5% acetonitrile 3 min, to 50% in 2 min, to 85% in 15 min, held 3 min, 100 µL/min
Settings: column: Zorbax Extend-C18 2.1 x 50 mm; eluents: water / acetonitrile, 0.1% formic acid
Summary of the method: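 Data were gathered over 3 months by HPLC coupled to a quadrupole time-of-flight mass spectrometer, operated in positive and negative ionization mode. Mixtures of ~100 pure standards ran on a Zorbax Extend-C18 column (2.1 × 50 mm, 1.8 μm) at 100 μL/min, with water and acetonitrile each containing 0.1% formic acid and dead and dwell volumes of 40 μL and 900 μL. Retention time was read from adduct peaks picked by computer and checked manually.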

Structure (SMILES) | RP-LC retention time [s]
Cc1noc(C)c1Cn1cccc(S(=O)(=O)N2CCCC2)c1=O | 644
CCOC(=O)c1c(C)c(CCC(=O)NCCN2CCOCC2)n(C)c1C | 597
Cc1cc(-n2nc(C)cc2C)n2nc(-c3ccc(Cl)cc3)c(C)c2n1 | 1170
Cc1ccccc1OCc1nc(-c2cccc(-c3ccn[nH]3)c2)no1 | 1020
COc1ccccc1C1(CNC(=O)NC2CCCCC2)CCOCC1 | 771
COc1ccc(CNC(=O)CN2C(=O)NC3(CCCCC3)C2=O)cc1 | 719
Cc1csc(-c2ccc(CNC(=O)c3cc(F)cc(F)c3)cc2)n1 | 939
CCN1CCN(C(=O)CN2c3ccc(C(C)C)cc3-c3ccccc3S2(=O)=O)CC1 | 712
CCC(C)NC(=O)N1CCN(Cc2nc3cccnc3n2-c2cccc(C)c2)CC1 (centres undefined) | 646
COCCNC(=O)C1(C)Cn2nc(-c3ccco3)cc2C(=O)N1c1ccc(OC)c(Cl)c1 (centres undefined) | 776
COc1ccc(NC(=O)C2(C)Oc3cccnc3N(C)C2=O)cc1Cl (centres undefined) | 842
Cc1cc2oc3c(c(=O)c2cc1C)C(c1ccccc1F)N(c1nccs1)C3=O (centres undefined) | 1050
CCOC(=O)C1=C(CN(C)Cc2ccccc2)NC(=O)NC1c1ccc(C)cc1 (centres undefined) | 670
CCOc1ccccc1-c1nc(-c2ccc3oc(CC)nc3c2)no1 | 1210
COc1ccc2c(c1)c(CN1CCC(C(=O)NCCc3ccco3)CC1)cn2C | 671
COC(=O)CN1C(=O)Nc2ccc(C)cc2C1c1ccccc1 (centres undefined) | 840
Cn1cnnc1SCC(=O)N1CCc2ccccc21 | 604
CCOC(=O)c1c(NCCc2cccs2)c2cc(Cl)ccc2[nH]c1=O | 826
COC(=O)c1c(N)n(CCc2ccccc2)c2nc3ccccc3nc12 | 711
O=C(Nc1ncc(Cc2ccccc2Cl)s1)c1cc2ccccc2c(=O)o1 | 991
COc1cccc(NC(=O)N2CCN(Cc3nc4ccc(Cl)cc4o3)CC2)c1 | 726
O=C(Nc1ccc2c(c1)OCCO2)N1CCC(OCCOCc2ccccc2)CC1 | 853
CCOCCOC1CCN(C(=O)c2ccco2)CC1 | 667

Structure (SMILES) | RP-LC retention time [s]
Cc1ccccc1CC(=O)NC1CCN(c2ccc(F)cc2)C1=O (centres undefined) | 810
Cc1noc(C2CN(C(=O)Nc3ccccc3C)CC23CCOCC3)n1 (centres undefined) | 700
COCCOC1CCC12CCN(C(=O)c1conc1C)CC2 (centres undefined) | 706
NS(=O)(=O)c1ccc(NC(=O)c2cnc3ccccn3c2=O)cc1 | 610
CCN1C(=O)C2CCC(=O)N2c2ccc(C(=O)NCc3ccco3)cc21 (centres undefined) | 674
O=C(NCCc1c[nH]c2ccc(Cl)cc12)c1cc2n(n1)CCCN(Cc1ccc(F)cc1)C2=O | 927
COc1ccc(NC(=O)CCC2CCN(c3cc(NC4CC4)ncn3)CC2)cc1OC | 646
CNC(=O)c1cc(C(C)(C)C)[nH]n1 | 618
COc1ccc(CNc2ncc(C(=O)O)c(C(C)C)n2)cc1OC | 863
Cc1ccc2nc(Cl)cc(=O)n2c1 | 740
COc1ccccc1CC(=O)Nc1cnc(-c2cccnc2)nc1 | 663
Cc1ccc(-c2cn3cc(C(=O)N4CCCN(C)CC4)ccc3n2)cc1C | 583
CCOC(=O)C(=O)NCc1nc(COc2ccc(OC)cc2)no1 | 716
CCN(CC)C(=O)c1ccc(-c2nc3cc(NS(=O)(=O)c4ccc(Cl)cc4)ccc3n2C)cc1 | 735
Cc1ccc2c(c1)N(S(C)(=O)=O)CCC(C(=O)N1CCCCC1)O2 (centres undefined) | 862
COc1ccc(OC)c(-c2ccc(=O)n(Cc3ccccn3)n2)c1 | 622
Cc1ccc(CNC(=O)N2CCC[C@@H]2C(=O)NCc2csc(-c3ccccc3)n2)cc1 | 824
O=C(C1COc2ccccc2O1)N1CCOc2ccc(N3CCCC3)cc2C1 (centres undefined) | 794
CC1CCN(c2cc(-n3cnc(C(=O)N4CCC5(CC4)OCCO5)c3)ncn2)CC1 | 834
Cc1nn2c(CNS(=O)(=O)c3ccc(C)c(Cl)c3)c(-c3ccccc3)nc2s1 | 962
O=C(NCCc1ccccc1)N1CCN(C(=O)N2C[C@H]3C[C@H](C2)[C@H]2CCCC(=O)N2C3)CC1 | 629
Cc1ccc(C)c(NC(=O)N2CCN(CCn3cnc4cccnc43)CC2)c1 | 596
COCCCN1C(=O)CSc2c(c3ccccc3n2C)C1C(=O)NCc1ccccc1OC (centres undefined) | 893

Structure (SMILES) | RP-LC retention time [s]
Cc1ccc(OCc2nc(Cc3nc(-c4ccccc4)oc3C)no2)cc1 | 1170
COc1cc(-n2cnc3cc(C(=O)NCC4CCCO4)ccc32)cc(OC)c1OC (centres undefined) | 660
Cc1ccc(-c2nc(Cn3cccc3C(=O)N3CCCC3)no2)cc1 | 972
COCc1noc(C2CCCCN2CC(=O)Nc2nccs2)n1 (centres undefined) | 720
CCc1nn2c(CNC(=O)c3ccc(F)c(F)c3)c(-c3ccccc3)nc2s1 | 661
O=C(c1cocn1)N1CC(F)(F)C[C@H]1c1nnc(-c2ccncc2)o1 | 638
CCn1cnc2ccc(-c3noc(-c4ccoc4)n3)cc21 | 683
CCc1cc(C(=O)NCc2ccccc2Cl)nc2ccnn12 | 1000
Cc1cnn(CC(=O)N2CCCn3ccnc3C2C2CCCC2)c1 (centres undefined) | 597
COc1cc(F)ccc1-c1ccnc2nc(C(C)C)nn12 | 842
O=C(c1ccccc1OCC1CCCNC1)N1CCCC1 (centres undefined) | 596
CC(=O)N1CCc2ccccc2C1C(=O)NCc1ccc(Br)cc1 (centres undefined) | 835
Cc1ncc(Cl)cc1NCc1ccc(C(=O)N[C@@H](CC2CCCC2)C(=O)NC2CC2)s1 | 837
COc1ccc(N2CCN(C(=O)C3CCN(S(=O)(=O)c4cn(C)c(C)n4)CC3)CC2)cc1 | 651
NC(=O)C1CCC(=O)N1C1CCN(C(=O)CCC2CCCC2)CC1 (centres undefined) | 566
Cc1ccc(NC(=O)CN2C(=O)CCS(=O)(=O)c3ccccc32)c(C)c1 | 768
CC(=O)c1ccc(NC(=O)C(C)Oc2cc(C(F)(F)F)c3c(C)nn(C)c3n2)cc1 (centres undefined) | 968
CCc1nnc(-c2ccc(NC(=O)c3ccc(S(=O)(=O)N(CC)CC)cc3)cc2)o1 | 826
CC1CCC(NC(=O)Cn2nc(C(=O)N3CCCC3)c3ccccc32)CC1 (centres undefined) | 892
CC1CCN(c2cc3c(cc2NC(=O)COc2ccc(Cl)cc2)n(C)c(=O)c(=O)n3C)CC1 | 1120
CCOc1ccccc1C(=O)Nc1c(-c2ccc(OC)cc2)nc2cc(C)ccn12 | 732
CCc1ccc(-c2csc(NC(=O)c3ccc(S(=O)(=O)N4CCCCC4)cc3)n2)cc1 | 1260
Cc1ccnc(N2CCCC(C(=O)NCCN(CCc3ccccc3)Cc3ccco3)C2)n1 (centres undefined) | 671
